Molecules are shown by their SMILES.

Type in all cases: cell-based
Assay [1] concerns the target T1, MR (Homo sapiens, UniProt P08235).
T1 construct: expressed in transfected cells; host or cells: 293T cells
T1 sequence (P08235 672-984): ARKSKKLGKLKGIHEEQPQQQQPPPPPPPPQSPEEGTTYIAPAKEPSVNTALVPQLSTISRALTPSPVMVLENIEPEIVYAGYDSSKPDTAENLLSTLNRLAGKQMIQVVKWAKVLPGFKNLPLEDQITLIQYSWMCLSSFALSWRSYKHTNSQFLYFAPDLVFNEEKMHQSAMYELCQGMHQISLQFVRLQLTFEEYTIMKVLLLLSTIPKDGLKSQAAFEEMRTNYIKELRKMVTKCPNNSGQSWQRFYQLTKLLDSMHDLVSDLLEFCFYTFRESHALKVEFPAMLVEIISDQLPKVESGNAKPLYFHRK
Kind of assay: Functional assay of mineralocorticoid receptor antagonism (mammalian two hybrid luciferase reporter, 293T cells, aldosterone-stimulated). The settings on record: antagonism of MR trans-activation induced by 0.4 nM aldosterone. Here is the method:
The MR antagonist activity of the compounds is determined in a mammalian two hybrid reporter system. The N-terminus of MR (MR-NT, sequence coding amino acid 1-597) is fused to the activation domain of the VP16 gene. The ligand binding domain of MR (MR-LBD, sequence encoding amino acid 672-984) is fused to the DNA binding domain of the yeast Gal4 gene. The MR gene is cloned from a human kidney cDNA library with PCR.
The assay is performed in 384 well plates. Briefly, 293T cells (ATCC) are transfected with expression vectors for Gal-4-MR-LBD and VP16-MR NT, and a luciferase reporter vector containing Gal4 binding sequence (pG5-Luc). Cells are plated in 384 well plates immediately after transfection (approximately 3×10^4 cells/well in 50 μl medium). The medium is supplemented with 3% charcoal-dextran treated fetal bovine serum (Hyclone). Twenty four hours after transfection, compounds prepared in DMSO are transferred to the cells. The cells are then stimulated with 0.4 nM final concentration of aldosterone (Acros) and incubated at 37° C. for another 24 hours before the luciferase activity is assayed with 20 μl of Bright-Glo (Promega) using a luminometer (CLIPR). The expression of luciferase is used as an indicator of aldosterone-induced MR trans-activation. Each compound is tested in duplicates with 12-concentration titration. IC50 values (defined as the concentration of test compound required to antagonize 50% of aldosterone-induced MR activity) are determined from the dose-response curve.

The target of assay [2] is T2, PR (Homo sapiens, UniProt P06401).
T2 sequence (P06401 1-933): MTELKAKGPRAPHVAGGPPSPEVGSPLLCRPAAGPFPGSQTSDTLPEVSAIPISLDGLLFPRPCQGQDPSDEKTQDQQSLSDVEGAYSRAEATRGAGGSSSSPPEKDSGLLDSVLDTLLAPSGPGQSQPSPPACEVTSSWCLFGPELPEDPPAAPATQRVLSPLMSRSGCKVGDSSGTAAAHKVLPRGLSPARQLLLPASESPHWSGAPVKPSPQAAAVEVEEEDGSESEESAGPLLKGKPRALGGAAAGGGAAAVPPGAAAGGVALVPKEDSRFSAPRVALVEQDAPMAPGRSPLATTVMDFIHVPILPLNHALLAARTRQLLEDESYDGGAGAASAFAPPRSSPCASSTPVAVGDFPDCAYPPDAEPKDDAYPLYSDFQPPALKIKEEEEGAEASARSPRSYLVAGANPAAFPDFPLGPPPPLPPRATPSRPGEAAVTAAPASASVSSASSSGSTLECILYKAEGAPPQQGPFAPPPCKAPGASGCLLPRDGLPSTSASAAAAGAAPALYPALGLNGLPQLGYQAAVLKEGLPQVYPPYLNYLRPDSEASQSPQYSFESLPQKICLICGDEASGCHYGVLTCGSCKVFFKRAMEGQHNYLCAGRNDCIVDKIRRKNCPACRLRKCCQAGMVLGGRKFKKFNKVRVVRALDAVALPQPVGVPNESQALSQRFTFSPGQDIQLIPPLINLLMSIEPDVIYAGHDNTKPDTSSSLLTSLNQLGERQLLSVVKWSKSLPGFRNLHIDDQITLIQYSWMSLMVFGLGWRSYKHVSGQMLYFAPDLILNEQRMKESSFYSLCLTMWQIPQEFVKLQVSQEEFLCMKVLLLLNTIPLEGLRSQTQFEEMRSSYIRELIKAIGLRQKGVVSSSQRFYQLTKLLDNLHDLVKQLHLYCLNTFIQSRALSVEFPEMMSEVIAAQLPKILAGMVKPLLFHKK
The experiment in a line: Functional assay of progesterone receptor antagonism (progesterone-induced alkaline phosphatase activity in T-47D cells). The settings on record: antagonism of PR activity induced by 3 nM progesterone. As for the experimental part:
The PR antagonist activity of the compounds is determined by progesterone-induced alkaline phosphatase activity in the T-47D cell line (ATCC). In the T-47D breast cancer cells, progesterone specifically induces de novo synthesis of a membrane-associated alkaline phosphatase enzyme in a time and dose-dependent manner (Di Lorenzo et al., Cancer Research, 51: 4470-4475 (1991)). The alkaline phosphatase enzymatic activity can be measured with a chemiluminescent substrate, such as CSPD® (Applied Biosystems). The assay is performed in 384 well plates. Briefly, T-47D cells are plated in 384 well plates at a density of approximately 2.5×10^4 cells/well in 50 μl medium supplemented with 10% fetal bovine serum. Twenty four hours later, the medium is aspirated. New medium that is free of phenol red and serum is added to the cells. Compounds prepared in DMSO are transferred to the cells. The cells are then stimulated with 3 nM final concentration of progesterone (Sigma) and incubated at 37° C. for another 24 hours before the alkaline phosphatase is assayed with 25 μl of CSPD® (Applied Biosystems) using a luminometer (CLIPR). The expression of alkaline phosphatase is used as an indicator of progesterone-induced PR trans-activation. Each compound is tested in duplicates with a 12-concentration titration. […]

For assay [3], the target named is T3, AR (Homo sapiens, UniProt P10275).
T3 sequence (P10275 1-920 Q868H): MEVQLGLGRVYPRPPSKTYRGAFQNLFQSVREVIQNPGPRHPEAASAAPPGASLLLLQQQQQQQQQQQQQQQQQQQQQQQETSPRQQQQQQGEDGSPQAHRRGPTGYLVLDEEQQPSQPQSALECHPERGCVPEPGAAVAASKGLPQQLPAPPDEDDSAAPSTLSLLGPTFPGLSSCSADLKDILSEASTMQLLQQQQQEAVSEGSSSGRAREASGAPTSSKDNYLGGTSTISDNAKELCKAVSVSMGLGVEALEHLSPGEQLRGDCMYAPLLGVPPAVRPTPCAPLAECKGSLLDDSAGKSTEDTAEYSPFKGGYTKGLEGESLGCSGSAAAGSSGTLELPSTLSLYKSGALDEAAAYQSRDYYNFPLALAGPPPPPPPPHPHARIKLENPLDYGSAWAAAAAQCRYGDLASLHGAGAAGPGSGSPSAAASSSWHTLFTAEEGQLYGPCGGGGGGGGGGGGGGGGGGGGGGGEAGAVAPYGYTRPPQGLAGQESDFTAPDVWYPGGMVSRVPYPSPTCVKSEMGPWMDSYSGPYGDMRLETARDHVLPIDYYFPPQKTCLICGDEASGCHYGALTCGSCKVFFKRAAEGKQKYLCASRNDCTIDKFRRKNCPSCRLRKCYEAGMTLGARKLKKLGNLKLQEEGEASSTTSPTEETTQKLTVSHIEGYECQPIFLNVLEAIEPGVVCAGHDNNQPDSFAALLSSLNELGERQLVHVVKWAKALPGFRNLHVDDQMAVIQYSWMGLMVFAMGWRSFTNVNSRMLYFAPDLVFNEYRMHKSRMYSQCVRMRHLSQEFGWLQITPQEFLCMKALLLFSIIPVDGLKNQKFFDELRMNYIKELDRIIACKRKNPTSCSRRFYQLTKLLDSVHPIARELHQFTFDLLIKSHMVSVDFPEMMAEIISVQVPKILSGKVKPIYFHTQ
The experiment in a line: Functional assay of androgen receptor antagonism (MMTV luciferase reporter in MDA-kb2 cells, dihydrotestosterone-stimulated). The settings on record: antagonism of AR trans-activation induced by 0.3 nM dihydrotestosterone. As for the experimental part: The AR antagonist activity of the compounds is determined with the MDA-Kb2 cell line (ATCC), which stably expresses the MMTV luciferase reporter. The MMTV promoter is a mouse mammary tumor virus promoter that contains androgen receptor response elements. […] Upon stimulation with AR ligands, such as dihydrotestosterone, the MMTV luciferase reporter can be activated.
The assay is performed in 384 well plates. Briefly, MDA-kb2 cells are plated in 384 well plates at a density of approximately 2.4×10^4 cells/well in 50 μl medium. The medium is supplemented with 5% charcoal-dextran treated fetal bovine serum (Hyclone). Twenty four hours later, compounds prepared in DMSO are transferred to the cells. The cells are then stimulated with 0.3 nM final concentration of dihydrotestosterone (Sigma) and incubated at 37° C. for another 24 hours before the luciferase activity is assayed with 20 μl of Bright-Glo (Promega) using a luminometer (CLIPR). The expression of luciferase is used as an indicator of dihydrotestosterone-induced AR trans-activation. Each compound is tested in duplicates with a 12-concentration titration. IC50 values (defined as the concentration of test compound required to antagonize 50% of dihydrotestosterone-induced AR activity) are determined from the dose-response curve.

Assay [4] addresses T4, GR (Homo sapiens, UniProt P04150).
T4 construct: expressed in transfected cells; host or cells: COS-7 cells
T4 sequence (P04150 541-777): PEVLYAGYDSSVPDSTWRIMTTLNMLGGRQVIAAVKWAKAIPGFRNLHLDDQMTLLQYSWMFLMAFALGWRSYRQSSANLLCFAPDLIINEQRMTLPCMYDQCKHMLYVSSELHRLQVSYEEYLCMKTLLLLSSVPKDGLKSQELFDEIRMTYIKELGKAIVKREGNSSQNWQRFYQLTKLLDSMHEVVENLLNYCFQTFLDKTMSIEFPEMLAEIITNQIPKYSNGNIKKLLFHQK
The experiment in a line: Functional assay of glucocorticoid receptor antagonism (Gal4-GR-LBD luciferase reporter, COS-7 cells, dexamethasone-stimulated). The settings on record: antagonism of GR trans-activation induced by 10 nM dexamethasone. Here is the method:
The GR antagonist activity of the compounds is determined in a mammalian two hybrid reporter system. The ligand binding domain of GR (GR-LBD, sequence encoding amino acid 541-778) is fused to the DNA binding domain of the yeast Gal4 gene. The GR gene is cloned from a human lung cDNA library with PCR.
The assay is performed in 384 well plates: COS-7 cells (ATCC) are transfected with expression vectors for Gal-4-GR-LBD and a luciferase reporter vector containing Gal4 binding sequence (pG5-Luc). Cells are plated in 384 well plates immediately after transfection (approximately 8000 cells/well in 50 μl medium). The medium is supplemented with 3% charcoal-dextran treated fetal bovine serum (Hyclone). Twenty four hours after transfection, compounds prepared in DMSO are transferred to the cells. The cells are then stimulated with 10 nM final concentration of dexamethasone (Sigma) and incubated at 37° C. for another 24 hours before the luciferase activity is assayed with 20 μl of Bright-Glo (Promega) using a luminometer (CLIPR). The expression of luciferase is used as an indicator of dexamethasone-induced GR trans-activation. Each compound is tested in duplicates with a 12-concentration titration. IC50 values (defined as the concentration of test compound required to antagonize 50% of dexamethasone-induced GR activity) are determined from the dose-response curve.

Regarding `Cc1cccc(-c2ccc3c(c2C)NC(=O)CO3)c1` [5-Methyl-6-m-tolyl-4H-benzo[1,4]oxazin-3-one], the IC50 in assay [1] was found to be 47 nM; in assay [2] it was 22 nM.
In turn, `CC(=O)Oc1ccc(CCc2ccc3c(c2)NC(=O)CO3)c(C)c1` [acetic acid 3-methyl-4-[2-(3-oxo-3,4-dihydro-2H-benzo[1,4]oxazin-6-yl)-ethyl]-phenyl ester] registered an IC50 in assay [1] below 2 nM.
`Cc1ccccc1/C=C/c1ccc2c(c1)NC(=O)CO2` [6-(2-o-tolyl-vinyl)-4H-benzo[1,4]oxazin-3-one]: the values for the IC50 in assay [1] and in assay [3] were 54 nM and 138 nM, respectively.
Consider `Cc1c(-c2csc(-c3ccccc3C(F)(F)F)n2)ccc2c1NC(=O)CO2` [5-Methyl-6-[2-(2-trifluoromethyl-phenyl)-thiazol-4-yl]-4H-benzo[1,4]oxazin-3-one], for which the IC50 in assay [1] is 162 nM; in assay [3], 52 nM; in assay [2] it was above 20000 nM; in assay [4], above 10000 nM.
`CC(=O)Oc1ccc(CCc2cc(C)c3c(c2)NC(=O)CO3)c(C)c1` [Acetic acid 3-methyl-4-[2-(8-methyl-3-oxo-3,4-dihydro-2H-benzo[1,4]oxazin-6-yl)-ethyl]-phenyl ester]: the values for the IC50 in assay [1] and in assay [4] were 1.3 nM and 210 nM, respectively.

Values taken from US20090054417A1, “COMPOUNDS AND COMPOSITIONS AS MODULATORS OF STEROID HORMONE NUCLEAR RECEPTORS” (IRM LLC, priority 2004, published 2009).
